In patent US20080299086A1, “Cultured muscle cells with high metabolic activity and method for production of the cultured muscle cells” (TOHOKU UNIVERSITY, priority 2006, published 2008):

How the values were obtained:
[1] = system: myc-GLUT4-ECFP in C2C12 myotube cells; test: Immunostaining of myc on the membrane, confocal microscope (membrane translocation of GLUT4); assay type: cell-based, mouse; conditions: insulin 100 nM, 60 minutes; FIG. 13
Protocol: The C2C12 myotube cells (differentiation-type culture myotube cell) expressing a myc-GLUT4-ECFP, prepared according to Preparation Example 3, were stimulated by insulin with a final concentration of 100 nM for 60 minutes. After being washed 3 times with PBS (−), they were fixed by being shaken in PBS (−) supplemented with 2% paraformaldehyde for 15 minutes. After being washed 3 times×10 minutes with PBS (−), they were blocked by being shaken in PBS (−) supplemented with 5% bovine serum for 1 hour. Next, they were shaken for 1 hour using an anti-myc-monoclonal antibody diluted 200-fold with PBS (−) supplemented with 1% bovine serum albumin as a primary antibody. After being washed 5 times×10 minutes with PBS (−), they were shaken for 1 hour using an anti-mice-IgG antibody (The Jackson Laboratory) bound to rhodamine that was diluted 2000-fold with PBS (−) supplemented with 1% bovine serum albumin as a secondary antibody. Subsequently, the glass cover was removed, and they were placed on a glass slide on which Vecta Shield was dropped, and rhodamine and expression of ECFP were observed under a confocal microscope.

[2] = system: recombinant GLUT4 (myc-GLUT4-ECFP) in C2C12 myotube cells; test: Measurement of GLUT4 membrane-translocation activity by anti-myc antibody uptake, western blot analysis; assay type: cell-based, mouse; conditions: insulin 100 nM, 60 minutes
Protocol: The C2C12 myotube cells expressing a recombinant GLUT4, prepared according to Preparation Example 3, were stimulated by insulin with a final concentration of 100 nM for 60 minutes. After 30 minutes from the start of insulin stimulation, an anti-myc-monoclonal antibody with a final concentration of 4 μg/ml was supplemented in a culture medium. After insulin stimulation, the cells were washed 5 times with PBS (−) to remove anti-myc antibodies that were present on the cell membrane, and subsequently, a cell extract was prepared using Laemmli's buffer. The cell extract was used for 12.5% SDS-PAGE, and western blot analysis using an anti-mice-IgG antibody bound to horseradish peroxidase was carried out. Moreover, detection was carried out using a west super femto detection kit (Pierce Biotechnology Inc.).

insulin
membrane translocation of GLUT4 (myc on the membrane) [1]: GLUT4 was translocated on the membrane | amount of the anti-myc antibody incorporated into the cells ([2]; FIG. 14A): significantly increased | GLUT4 activity increase by insulin (quantified western blot) ([2]; anti-myc antibody 4 μg/ml, FIG. 14C): approximately 3 fold
